Common to all, as to format: cell-based
For assay [1], the system named is Respiratory syncytial virus (RSV) strain A2. Kind of assay: Hep-2 RSV2 384-well assay (EC50-HEP2-384). To be noted: HEp-2 cells, RSV A2, MOI=4, 4 days, Table 3.
The test system of assay [2] is SARS-CoV-2. Kind of assay: SARS-CoV-2 antiviral assay (A549-hACE2, Nano luciferase). The conditions noted are these: A549-hACE2 cells, SARS-CoV2-Nano, MOI 0.025, 48 h, Table 4, read-out: EC50 SARS CoV2.
Assay [3] relates to Respiratory syncytial virus (RSV) strain A2. Kind of assay: RSV antiviral assay (HEp-2, 96 well). The conditions noted are these: Table 3.
The mark [4] stands for this setting: human respiratory syncytial virus, HEp-2, 96 h.
[5] abbreviates: read-out: EC50 RSV HEP2 96, HEp-2 cells, RSV A2, MOI=4, 4 days, 96 well.
Setting [6] is: Severe acute respiratory syndrome coronavirus 2, 48 h.
[7] abbreviates: human respiratory syncytial virus, HEp-2, 96 h, read-out: EC50 RSV HEP2 96, HEp-2 cells, RSV A2, MOI=4, 4 days, 96 well.

Where two headings read alike, the source gives them in different places.

In assay [1] (setting [4]), `CCC(C)(C)CCOC(=O)[C@H](C)NP(=O)(OC[C@H]1O[C@@](C#N)(c2ccc3c(N)ncnn23)[C@H](OC(=O)C(C)C)[C@@H]1OC(=O)C(C)C)Oc1ccc(C(C)(C)C)cc1` (stereo partly drawn) [Example 160, (2R,3R,4R,5R)-2-(4-aminopyrrolo[2,1-f][1,2,4]triazin-7-yl)-5-((((4-(tert-butyl)phenoxy)(((S)-1-((3,3-dimethylpentyl)oxy)-1-oxopropan-2-yl)amino)phosphoryl)oxy)methyl)-2-cyanotetrahydrofuran-3,4-diyl bis(2-methylpropanoate)] returned an EC50 of 219 nM. Same read-out and setting: the result for `CCC(=O)O[C@H]1[C@@H](OC(=O)CC)[C@](C#N)(c2ccc3c(N)ncnn23)O[C@@H]1COP(=O)(N[C@@H](C)C(=O)OC1CC2(CCCC2)C1)Oc1ccc(C(C)(C)C)cc1` (stereo partly drawn) [Example 99a, (2R,3R,4R,5R)-2-(4-aminopyrrolo[2,1-f][1,2,4]triazin-7-yl)-5-((((4-(tert-butyl)phenoxy)(((S)-1-oxo-1-(spiro[3.4]octan-2-yloxy)propan-2-yl)amino)phosphoryl)oxy)methyl)-2-cyanotetrahydrofuran-3,4-diyl Dipropionate] reads 81.7 nM. In turn, `C[C@H](NP(=O)(OC[C@H]1O[C@@](C#N)(c2ccc3c(N)ncnn23)[C@H](O)[C@@H]1O)Oc1ccc(C(C)(C)C)cc1)C(=O)OC1CCC1` (single isomer, unassigned) [Example 31b] registered an EC50 in assay [1] of 41.1 nM. Consider `C[C@H](NP(=O)(OC[C@H]1O[C@@](C#N)(c2ccc3c(N)ncnn23)[C@H](O)[C@@H]1O)Oc1ccc(C(C)(C)C)cc1)C(=O)OC1CCCCC1` (stereo partly drawn) [Example 142, cyclohexyl ((((2R,3S,4R,5R)-5-(4-aminopyrrolo[2,1-f][1,2,4]triazin-7-yl)-5-cyano-3,4-dihydroxytetrahydrofuran-2-yl)methoxy)(4-(tert-butyl)phenoxy)phosphoryl)-L-alaninate], for which it took 73.5 nM to reach a half-maximal effect in assay [1] (setting [4]) (EC50).

On to `CC(C)C(=O)O[C@H]1[C@@H](OC(=O)C(C)C)[C@](C#N)(c2ccc3c(N)ncnn23)O[C@@H]1COP(=O)(N[C@@H](C)C(=O)OC1CC2(CCCC2)C1)Oc1ccc(C(C)(C)C)cc1` (stereo partly drawn) [Example 100a, (2R,3R,4R,5R)-2-(4-aminopyrrolo[2,1-f][1,2,4]triazin-7-yl)-5-((((4-(tert-butyl)phenoxy)(((S)-1-oxo-1-(spiro[3.4]octan-2-yloxy)propan-2-yl)amino)phosphoryl)oxy)methyl)-2-cyanotetrahydrofuran-3,4-diyl bis(2-methylpropanoate)], for which, in assay [1] (setting [4]), it took 111 nM to reach a half-maximal effect (EC50). As for `CCC(CC)COC(=O)[C@H](C)N[P@@](=O)(OC[C@H]1O[C@@](C#N)(c2ccc3c(N)ncnn23)[C@H](OC(=O)C(C)C)[C@@H]1OC(=O)C(C)C)Oc1cccc2c1CCCC2` [Example 146, (2R,3R,4R,5R)-2-(4-aminopyrrolo[2,1-f][1,2,4]triazin-7-yl)-2-cyano-5-((((R)—(((S)-1-(2-ethylbutoxy)-1-oxopropan-2-yl)amino)((5,6,7,8-tetrahydronaphthalen-1-yl)oxy)phosphoryl)oxy)methyl)tetrahydrofuran-3,4-diyl bis(2-methylpropanoate)], the EC50 in assay [1] amounted to 459 nM. Turning to `COCCOC(=O)[C@H](C)NP(=O)(OC[C@H]1O[C@@](C#N)(c2ccc3c(N)ncnn23)[C@H](O)[C@@H]1O)Oc1ccc(C(C)(C)C)cc1` (stereo partly drawn) [Example 141, 2-methoxyethyl ((((2R,3S,4R,5R)-5-(4-aminopyrrolo[2,1-f][1,2,4]triazin-7-yl)-5-cyano-3,4-dihydroxytetrahydrofuran-2-yl)methoxy)(4-(tert-butyl)phenoxy)phosphoryl)-L-alaninate], in assay [1] (setting [4]), the concentration for a half-maximal effect (EC50) came to 305 nM. Same read-out and setting: with `CC(C)C(=O)O[C@H]1[C@@H](OC(=O)C(C)C)[C@](C#N)(c2ccc3c(N)ncnn23)O[C@@H]1COP(=O)(N[C@@H](C)C(=O)O[C@H]1CCOC1)Oc1ccc(C(C)(C)C)cc1` (stereo partly drawn) [Example 36, (2R,3R,4R,5R)-2-(4-aminopyrrolo[2,1-f][1,2,4]triazin-7-yl)-5-((((4-(tert-butyl)phenoxy)(((S)-1-oxo-1-(((S)-tetrahydrofuran-3-yl)oxy)propan-2-yl)amino)phosphoryl)oxy)methyl)-2-cyanotetrahydrofuran-3,4-diyl bis(2-methylpropanoate)] the figure was 102 nM.

`CCC(CC)COC(=O)[C@H](C)NP(=O)(OC[C@H]1O[C@@](C#N)(c2ccc3c(N)ncnn23)[C@H](O)[C@@H]1O)Oc1ccc(OC2CCCCC2)cc1` (stereo partly drawn) [Example 140, 2-ethylbutyl ((((2R,3S,4R,5R)-5-(4-aminopyrrolo[2,1-f][1,2,4]triazin-7-yl)-5-cyano-3,4-dihydroxytetrahydrofuran-2-yl)methoxy)(4-(cyclohexyloxy)phenoxy)phosphoryl)-L-alaninate] came in with an EC50 in assay [1] (setting [4]) of 302 nM. In the case of `CCC(=O)O[C@H]1[C@@H](OC(=O)CC)[C@](C#N)(c2ccc3c(N)ncnn23)O[C@@H]1COP(=O)(N[C@@H](C)C(=O)OC1CC2(CCC2)C1)Oc1cccc2ccccc12` (single isomer, unassigned) [Example 87a], the EC50 is 60.2 nM in assay [2] and 31.1 nM in assay [3] (setting [5]). As to `CCOC(=O)[C@H](C)NP(=O)(OC[C@H]1O[C@@](C#N)(c2ccc3c(N)ncnn23)[C@H](OC(=O)CC)[C@@H]1OC(=O)CC)Oc1ccc(C(C)(C)C)cc1` (stereo partly drawn) [Example 108, (2R,3R,4R,5R)-2-(4-aminopyrrolo[2,1-f][1,2,4]triazin-7-yl)-5-((((4-(tert-butyl)phenoxy)(((S)-1-ethoxy-1-oxopropan-2-yl)amino)phosphoryl)oxy)methyl)-2-cyanotetrahydrofuran-3,4-diyl Dipropionate], the EC50 came to 82.9 nM in assay [2] (setting [6]) and 27.7 nM in assay [3] (setting [7]).

For `CC(C)COC(=O)[C@H](C)NP(=O)(OC[C@H]1O[C@@](C#N)(c2ccc3c(N)ncnn23)[C@H](O)[C@@H]1O)Oc1ccc(C(C)(C)C)cc1` (stereo partly drawn) [Example 118, isobutyl ((((2R,3S,4R,5R)-5-(4-aminopyrrolo[2,1-f][1,2,4]triazin-7-yl)-5-cyano-3,4-dihydroxytetrahydrofuran-2-yl)methoxy)(4-(tert-butyl)phenoxy)phosphoryl)-L-alaninate], the EC50 in assay [2] (setting [6]) stood at 329 nM; in assay [3] (setting [7]), 23.5 nM. Turning to `CC(C)C(=O)O[C@H]1[C@@H](OC(=O)C(C)C)[C@](C#N)(c2ccc3c(N)ncnn23)O[C@@H]1COP(=O)(N[C@@H](C)C(=O)OCC1CCC1)Oc1ccc(C(C)(C)C)cc1` (stereo partly drawn) [Example 60, [(2R,3R,4R,5R)-5-(4-aminopyrrolo[2,1-f][1,2,4]triazin-7-yl)-2-[[(4-tert-butylphenoxy)-[[(1S)-2-(cyclobutylmethoxy)-1-methyl-2-oxo-ethyl]amino]phosphoryl]oxymethyl]-5-cyano-4-(2-methylpropanoyloxy)tetrahydrofuran-3-yl] 2-methylpropanoate], the figures for the EC50 in assay [2] (setting [6]) and in assay [3] (setting [7]) were 180 nM and 64 nM, respectively. In the case of `CCC(=O)O[C@H]1[C@@H](OC(=O)CC)[C@](C#N)(c2ccc3c(N)ncnn23)O[C@@H]1COP(=O)(N[C@@H](C)C(=O)OCC(CC)CC)Oc1cccc2ccccc12` (single isomer, unassigned) [Example 79a], the values for the EC50 in assay [2] and in assay [3] (setting [5]) were 126 nM and 61.2 nM, respectively. For `CCC(=O)O[C@H]1[C@@H](OC(=O)CC)[C@](C#N)(c2ccc3c(N)ncnn23)O[C@@H]1COP(=O)(N[C@@H](C)C(=O)OC)Oc1ccc(C(C)(C)C)cc1` (stereo partly drawn) [Example 113, (2R,3R,4R,5R)-2-(4-aminopyrrolo[2,1-f][1,2,4]triazin-7-yl)-5-((((4-(tert-butyl)phenoxy)(((S)-1-methoxy-1-oxopropan-2-yl)amino)phosphoryl)oxy)methyl)-2-cyanotetrahydrofuran-3,4-diyl Dipropionate], the values for the EC50 in assay [2] (setting [6]) and in assay [3] (setting [7]) were 126 nM and 22.1 nM, respectively. Turning to `CC(=O)O[C@H]1[C@@H](OC(C)=O)[C@](C#N)(c2ccc3c(N)ncnn23)O[C@@H]1COP(=O)(N[C@@H](C)C(=O)OC1CCC1)Oc1ccc(C2CC2)cc1` (single isomer, unassigned) [Example 53b], the values for the EC50 in assay [2] (setting [6]) and in assay [3] (setting [5]) were 103 nM and 21.2 nM, respectively. With `CC(C)C(=O)O[C@H]1[C@@H](OC(=O)C(C)C)[C@](C#N)(c2ccc3c(N)ncnn23)O[C@@H]1COP(=O)(N[C@@H](C)C(=O)OC1CC2(CCC2)C1)Oc1ccc(C(C)(C)C)cc1` (stereo partly drawn) [Example 66, [(2R,3R,4R,5R)-5-(4-aminopyrrolo[2,1-f][1,2,4]triazin-7-yl)-2-[[(4-tert-butylphenoxy)-[[(1S)-1-methyl-2-oxo-2-spiro[3.3]heptan-2-yloxy-ethyl]amino]phosphoryl]oxymethyl]-5-cyano-4-(2-methylpropanoyloxy)tetrahydrofuran-3-yl] 2-methylpropanoate], the values for the half-maximal effective concentration (EC50) in assay [2] (setting [6]) and in assay [3] (setting [7]) were 207 nM and 61.9 nM, respectively. For `CCC(CC)COC(=O)[C@H](C)NP(=O)(OC[C@H]1O[C@@](C#N)(c2ccc3c(N)ncnn23)[C@H](O)[C@@H]1O)Oc1cccc2ccccc12` (stereo partly drawn) [Intermediate S2, 2-Ethylbutyl ((((2R,3S,4R,5R)-5-(4-aminopyrrolo[2,1-f][1,2,4]triazin-7-yl)-5-cyano-3,4-dihydroxytetrahydrofuran-2-yl)methoxy)(naphthalen-1-yloxy)phosphoryl)-L-alaninate], in that order: 207 nM and 84.8 nM. In the same order, the values of `CCC(=O)O[C@H]1[C@@H](OC(=O)CC)[C@](C#N)(c2ccc3c(N)ncnn23)O[C@@H]1COP(=O)(N[C@@H](C)C(=O)OC1CCC1)Oc1ccccc1` (stereo partly drawn) [Example 107, (2R,3R,4R,5R)-2-(4-aminopyrrolo[2,1-f][1,2,4]triazin-7-yl)-2-cyano-5-((((((S)-1-cyclobutoxy-1-oxopropan-2-yl)amino)(phenoxy)phosphoryl)oxy)methyl)tetrahydrofuran-3,4-diyl Dipropionate] are 180 nM and 20.1 nM.

Values taken from US12404289B2 (Gilead Sciences, Inc., priority 2020, dated 2025).
